Experimental data from patent US7671050B2, “Triazolophthalazines” (NYCOMED GmbH, priority 2005, dated 2010).
No end group written: not given here.

Columns and labels:
HUVEC monolayers = assay: Inhibition of thrombin-stimulated macromolecule (HRP) permeability of HUVEC monolayers; assay type: cell-based, human; conditions: 1 U/ml thrombin; for IC50: Homo sapiens, 1 h, HUVEC on Transwells, 1 μM RP73401, 10 μM Motapizone, 1 mM SNP or 100 nM ANP, HRP passage after 60 min, read-out: Inhibition of SNP- or ANP-induced permeability, -log IC50 (converted); for Effect on thrombin-induced hyperpermeability (HRP passage): 1 μM RP73401 together with 10 μM Motapizone, 60 min
Method: The procedure to measure macromolecule permeability of endothelial cell monolayers followed the method described by Langeler & van Hinsbergh (1988) with modifications. Human umbilical vein endothelial cells were isolated from umbilical cords according to standard procedures (Jaffe et al. 1973) and cultured in endothelial cell basal medium (EBM) supplemented with 2% FCS, 0.5 ng/ml VEGF, 10 ng/ml bFGF, 5 ng/ml EGF, 20 ng/ml Long R3 IGF-1, 0.2 μg/ml hydrocortisone, 1 μg/ml ascorbic acid, 22.5 μg/ml heparin, 50 μg/ml gentamicin, 50 ng/ml amphotericin B (EGM2 purchased from Promocell GmbH, Heidelberg, Germany). At confluency, cells were trypsinized and replated at 73000 cells per well on 3 μm polycarbonate filter Transwell inserts (Costar GmbH, Bodenheim, Germany) precoated with 10 μg cm^2−1 Fibronectin (Sigma, Taufkirchen, Germany). HUVECs were cultured in EGM2 (100 μl in the upper wells and 600 μl in the lower wells) over four days prior the experiments and medium was changed every other day. At the day of the experiment culture medium was replaced by M199 with 1% human serum albumin. Endothelial cells were preincubated with cyclic nucleotide modifiers (the selective PDE3 inhibitor motapizone, the selective PDE4 inhibitor RP73401, the cGMP generators ANP or SNP and PDE2 inhibitors) for 15 min. HUVECs were then stimulated with Thrombin (1 U ml^−1) (Sigma, Taufkichen, Germany) and horsh radish peroxidase (5 μg/ml) (Sigma, Taufkirchen, Germany) as the macromolecule marker protein was added to the upper wells. Following 1 h incubation time Transwells were removed and the activity of horsh radish peroxidase that penetrated the endothelial cell monolayer was measured in the lower wells with the 3,3′,5,5′-tetramethylbenzidine liquid substrate system from Sigma (Taufkirchen, Germany).
In parallel, compounds according to the invention can inhibit Thrombin-induced permeability of HUVEC monolayers for horsh radish peroxidase (HRP) as a macromolecule marker. […] The concentration-dependent inhibition of HRP permeability at different concentrations was assessed from the percent inhibition in the presence and absence of the PDE2 inhibitors and in the presence of 1 μM RP73401, 10 μM Motapizone and 100 nM ANP.
HUVEC cells on 3 μm polycarbonate filters (Transwells) were preincubated with 1 μM RP73401 (to block PDE4) and 10 μM Motapizone (to block PDE3), 1 mM SNP or 100 nM ANP and test sample over 15 min and then stimulated with 1 U/ml thrombin. HRP passage into the lower wells was assessed after 60 min.

Row | melting point [°C] | Compound | IC50 (HUVEC monolayers) [nM] | Effect on thrombin-induced hyperpermeability (HRP passage) (HUVEC monolayers) | Effect on the block of thrombin-induced hyperpermeability by RP73401 and Motapizone (HUVEC monolayers; 1 mM SNP or 100 nM ANP added to 1 μM RP73401 and 10 μM Motapizone)
1 | 301 to 304 | COc1ccc(Nc2nn3c(-c4ccc(OC)cc4)nnc3c3ccccc23)cc1 [Example 1, (4-Methoxyphenyl)-[3-(4-methoxyphenyl)-[1,2,4]triazolo[3,4-a]phthalazin-6-yl]-amine] | – | – | –
2 | – | COc1ccc(-c2nnc3c4ccccc4c(Nc4ccc(OC)c(OC)c4)nn23)cc1 [Example 2, (3,4-Dimethoxy-phenyl)-[3-(4-methoxy-phenyl)-[1,2,4]triazolo[3,4-a]phthalazin-6-yl]-amine] | 7.94 to 316 | – | –
3 | 260 | COc1ccc(-c2nnc3c4ccccc4c(Nc4cccc(OCc5ccccc5)c4)nn23)cc1 [Example 4, (3-Benzyloxyphenyl)-[3-(4-methoxyphenyl)-[1,2,4]triazolo[3,4-a]phthalazin-6-yl]-amine] | – | – | –
4 | 295 | COc1ccc(-c2nnc3c4ccccc4c(Nc4ccc(Cl)cc4)nn23)cc1 [Example 5, (4-Chlorophenyl)-[3-(4-methoxyphenyl)-[1,2,4]triazolo[3,4-a]phthalazin-6-yl]-amine] | – | – | –
5 | – | COc1ccc(-c2ccc(Nc3nn4c(-c5ccc(OC)cc5)nnc4c4ccccc34)cc2)cc1 [Example 6, (4′-Methoxybiphenyl-4-yl)-[3-(4-methoxyphenyl)-[1,2,4]triazolo[3,4-a]phthalazin-6-yl]-amine] | 7.94 to 316 | – | –
6 | – | COc1ccc(-c2nnc3c4ccccc4c(Nc4cccc(OC)c4)nn23)cc1 [Example 7, (3-Methoxyphenyl)-[3-(4-methoxyphenyl)-[1,2,4]triazolo[3,4-a]phthalazin-6-yl]-amine] | 7.94 to 316 | – | –
7 | 275.5 | COc1ccc(-c2nnc3c4ccccc4c(Nc4ccc(Oc5ccccc5)cc4)nn23)cc1 [Example 8, [3-(4-Methoxyphenyl)-[1,2,4]triazolo[3,4-a]phthalazin-6-yl]-(4-phenoxyphenyl)-amine] | 7.94 to 316 | – | –
8 | – | COc1ccc(-c2nnc3c4ccccc4c(Nc4cccc(Oc5ccccc5)c4)nn23)cc1 [Example 9, [3-(4-Methoxyphenyl)-[1,2,4]triazolo[3,4-a]phthalazin-6-yl]-(3-phenoxyphenyl)-amine] | 7.94 to 316 | – | –
9 | 297 | COc1ccc(-c2nnc3c4ccccc4c(Nc4ccc(OCc5ccccc5)cc4)nn23)cc1 [Example 10, (4-Benzyloxyphenyl)-[3-(4-methoxyphenyl)-[1,2,4]triazolo[3,4-a]phthalazin-6-yl]-amine] | 7.94 to 316 | – | –
10 | 311 | COc1ccc(-c2nnc3c4ccccc4c(Nc4ccc(C)cc4)nn23)cc1 [Example 11, [3-(4-Methoxyphenyl)-[1,2,4]triazolo[3,4-a]phthalazin-6-yl]-p-tolyl-amine] | 7.94 to 316 | – | –
11 | 297.5 | CCOc1ccc(Nc2nn3c(-c4ccc(OC)cc4)nnc3c3ccccc23)cc1 [Example 12, (4-Ethoxyphenyl)-[3-(4-methoxyphenyl)-[1,2,4]triazolo[3,4-a]phthalazin-6-yl]-amine] | 7.94 to 316 | – | –
12 | 314 | COc1ccc(-c2nnc3c4ccccc4c(Nc4ccc(N5CCOCC5)cc4)nn23)cc1 [Example 13, [3-(4-Methoxyphenyl)-[1,2,4]triazolo[3,4-a]phthalazin-6-yl]-(4-morpholin-4-yl-phenyl)-amine] | 7.94 to 316 | – | –
13 | 300 | COc1ccc(-c2nnc3c4ccccc4c(Nc4ccc(OC(F)(F)F)cc4)nn23)cc1 [Example 14, [3-(4-Methoxyphenyl)-[1,2,4]triazolo[3,4-a]phthalazin-6-yl]-(4-trifluoromethoxyphenyl)-amine] | 7.94 to 316 | – | –
14 | 295 | COc1ccc(-c2nnc3c4ccccc4c(Nc4ccc(CC#N)cc4)nn23)cc1 [Example 15, {4-[3-(4-Methoxyphenyl)-[1,2,4]triazolo[3,4-a]phthalazin-6-ylamino]-phenyl}-acetonitrile] | 7.94 to 316 | – | –
15 | 326 | COc1ccc(-c2nnc3c4ccccc4c(Nc4ccc(SC)cc4)nn23)cc1 [Example 16, [3-(4-Methoxyphenyl)-[1,2,4]triazolo[3,4-a]phthalazin-6-yl]-(4-methylsulfanylphenyl)-amine] | 7.94 to 316 | – | –
16 | 306 | c1ccc(Oc2ccc(-c3nnc4c5ccccc5c(Nc5ccc(N6CCOCC6)cc5)nn34)cc2)cc1 [Example 17, (4-Morpholin-4-yl-phenyl)-[3-(4-phenoxyphenyl)-[1,2,4]triazolo[3,4-a]phthalazin-6-yl]-amine] | 7.94 to 316 | – | –
17 | 266 | COc1ccc(-c2nnc3c4ccccc4c(Nc4ccc(N5CCN(C)CC5)cc4)nn23)cc1 [Example 18, [3-(4-Methoxyphenyl)-[1,2,4]triazolo[3,4-a]phthalazin-6-yl]-[4-(4-methylpiperazin-1-yl)-phenyl]-amine] | 7.94 to 316 | – | –
18 | – | COC(=O)c1cccc(-c2nnc3c4ccccc4c(Nc4ccc(N5CCOCC5)cc4)nn23)c1 [Example 19, 3-[6-(4-Morpholin-4-yl-phenylamino)-[1,2,4]triazolo[3,4-a]phthalazin-3-yl]-benzoic acid methyl ester] | 7.94 to 316 | – | –
19 | 322 | c1ccc2c(c1)c(Nc1ccc(N3CCOCC3)cc1)nn1c(-c3ccc(N4CCOCC4)cc3)nnc21 [Example 20, (4-Morpholin-4-yl-phenyl)-[3-(4-morpholin-4-yl-phenyl)-[1,2,4]triazolo[3,4-a]phthalazin-6-yl]-amine] | – | – | –
20 | 303 | COC(=O)c1ccc(-c2nnc3c4ccccc4c(Nc4ccc(N5CCOCC5)cc4)nn23)cc1 [Example 22, 4-[6-(4-Morpholin-4-yl-phenylamino)-[1,2,4]triazolo[3,4-a]phthalazin-3-yl]-benzoic acid methyl ester] | – | – | –
21 | – | CCOc1cccc(Nc2nn3c(-c4ccc(OC)cc4)nnc3c3ccccc23)c1 [Example 23, (3-Ethoxyphenyl)-[3-(4-methoxyphenyl)-[1,2,4]triazolo[3,4-a]phthalazin-6-yl]-amine] | 7.94 to 316 | – | –
22 | – | COc1ccc(-c2nnc3c4ccccc4c(Nc4cccc(OC(F)(F)F)c4)nn23)cc1 [Example 24, [3-(4-Methoxyphenyl)-[1,2,4]triazolo[3,4-a]phthalazin-6-yl]-(3-trifluoromethoxyphenyl)-amine] | 7.94 to 316 | – | –
23 | 306 | c1ccc(-c2nnc3c4ccccc4c(Nc4ccc(N5CCOCC5)cc4)nn23)cc1 [Example 25, (4-Morpholin-4-ylphenyl)-(3-phenyl-[1,2,4]triazolo[3,4-a]phthalazin-6-yl)-amine] | 7.94 to 316 | – | –
24 | 317 | Oc1ccccc1-c1nnc2c3ccccc3c(Nc3ccc(N4CCOCC4)cc3)nn12 [Example 26, 2-[6-(4-Morpholin-4-yl-phenylamino)-[1,2,4]triazolo[3,4-a]phthalazin-3-yl]-phenol] | 7.94 to 316 | – | –
25 | 218 | COc1ccc(-c2nnc3c4ccccc4c(Nc4cc(OC)cc(OC)c4)nn23)cc1 [Example 27, (3,5-Dimethoxyphenyl)-[3-(4-methoxyphenyl)-[1,2,4]triazolo[3,4-a]phthalazin-6-yl]-amine] | 7.94 to 316 | – | –
26 | 247 | COc1ccc(-c2nnc3c4ccccc4c(Nc4cccc(OC(F)F)c4)nn23)cc1 [Example 28, [3-(1,1-Difluoromethoxy)-phenyl]-[3-(4-methoxyphenyl)-[1,2,4]triazolo[3,4-a]phthalazin-6-yl]-amine] | 7.94 to 316 | – | –
27 | 314 to 316 | COc1ccc(-c2nnc3c4ccccc4c(Nc4ccc(Br)cc4)nn23)cc1 [Example 31, (4-Bromo-phenyl)-[3-(4-methoxy-phenyl)-[1,2,4]triazolo[3,4-a]phthalazin-6-yl]-amine] | – | – | –
28 | – | CC1CC(=O)NN=C1c1cc(-n2ccnc2)cs1 (centres unmarked) [Motapizone, reference compound] | – | completely blocked | –
29 | – | COc1ccc(C(=O)Nc2c(Cl)cncc2Cl)cc1OC1CCCC1 [RP73401, reference compound] | – | completely blocked | –
30 | – | ANP: cGMP generator (SLRRSSCFGGRMDRIGAQSGLGCNSFRY; ends and bridges not checked; cysteine pairing not given here; UniProt P01160 124-151, looked up) [reference compound] | – | – | partially reversed
